Consider five compounds from US11401255B2, “Small molecule activators of Parkin enzyme function” (Mayo Foundation for Medical Education and Research, priority 2016, dated 2022).

One series deals with Parkin (Homo sapiens (Human), UniProt O60260). The experiment in a line: Parkin substrates and pS65-Ub western blot in HeLa cells stably expressing untagged Parkin. The note with it: 5 μM, 2 h, then 3.5 μM CCCP. Type of series: cell-based. Here is the method:
HeLa cells stably expressing untagged Parkin were left untreated or pre-treated with 5 μM of Compounds 1, 2, 3, 4, and 31 for 2 h and treated without (−) or with (+) low dose CCCP (3.5 μM CCCP). As a positive control (PC), some cells were treated with 10 μM CCCP. Lysates were loaded onto 8-16% Tris-Glycine gels, blotted onto membranes and probed with antibodies against Parkin substrates.
HeLa cells stably expressing untagged Parkin were left untreated or pre-treated with 5 μM of Compounds 1, 2, 3, 4, and 31 for 2 h and treated without (−) or with (+) low dose CCCP (3.5 μM CCCP). The positive control (PC) was treated with 10 μM CCCP for 2 h. Lysates were loaded onto 8-16% Tris-Glycine gels, blotted onto membranes and probed with antibodies against pS65-Ub.
Cells were harvested in RIPA buffer or NP-40 lysis buffer containing protease and phosphatase inhibitors (Complete and PhosStop, Roche Applied Science) with the exception of Parkin Ub charging experiments where preheated (95° C.) SDS lysis buffer (50 mM Tris pH 7.6, 150 mM NaCl, 1% SDS) was used. Concentration of cell lysates was determined with bicinchoninic acid (Pierce Biotechnology). For Parkin Ub charging experiments, aliquots of lysates were treated with […] for 1 h at 37° C. pH was neutralized with equinormal HCl.
Protein was subjected to SDS-PAGE using 4-20% or 8-16% Tris-Glycine gels (Invitrogen) and transferred onto polyvinylidene fluoride (PVDF) (Millipore). Membranes were incubated with primary antibodies overnight at 4° C. followed by HRP-conjugated secondary antibodies (1:10,000; Jackson ImmunoResearch Laboratories). Primary antibodies used: beta III tubulin (rabbit, 1:1000, CST, #5568, CST), FLAG (mouse, 1:250,000, Sigma, F3165), GAPDH (mouse, 1:100,000-500,000, Meridian Life science, H86504M), GST (1:10,000, Sigma, G7781), MFN1 (mouse, 1:5,000, Abcam, ab57602), MFN2 (mouse, 1:5,000, Abcam, ab56889), Parkin (mouse, 1:2,000, Cell Signaling, #4211), pSer65-Ub (rabbit, 1:15,000, in-house (Fiesel et al., EMBO Reports (2015) 16:1114-30; Fiesel et al., (2015) Autophagy 11:2125-2126)), TOM70 (rabbit, 1:5,000, Proteintech, 14528-1-AP), UBE2L3 (rabbit, 1:10,000, ProteinTech, 14415-1-AP), VDAC1 (mouse, 1:5,000, Abcam, ab14734), vinculin (mouse, 1:100,000, Sigma, V9131).
As readout for its activation, a catalytic site mutant that can be used to trap Ub-charged Parkin was employed. […] To further validate effects on enhanced activation, we used HeLa cells expressing untagged native Parkin. PC treatment with 10 μM CCCP induced pSer65-Ub signals and the complete degradation of some substrates (e.g., Mitofusins) while the most abundant, VDAC1, was still ubiquitylated (FIG. 8). Similar effects were seen when cells had been pre-incubated with 5 μM of compound before a low dose CCCP, which had no effect on its own.

Another series deals with Caco-2 cells. The experiment in a line: Caco-2 A-B permeability assay. The format is in vitro ADME. The note with it: A-B, 90 min, pH=7.4. Here is the method:
Caco-2 cells were cultivated in 75 cm^2 flasks to 80-90% of confluence according to the ATCC and Millipore recommendations (Millipore protocol note PC1060EN00P) in a humidified atmosphere at 37° C. and 5% CO2. Cells were detached with Trypsin/EDTA solution and re-suspended in the cell culture medium to a final concentration of 2×10^5 cells/mL. 500 μL of the cell suspension was added to each well of an HTS 24-multiwell insert system and 35 mL of prewarmed complete medium was added to the feeder tray. Caco-2 cells were incubated in the multiwell insert system for 10 days before the transport experiments. The medium in the filter plate and feeder tray was changed every other day. After 10 days of cell growth, the integrity of the monolayer was verified by measuring the transepithelial electrical resistance (TEER) for every well using the Millicell-ERS system ohm meter. […] The 24-well insert plate was removed from its feeder plate and placed in a new sterile 24-well transport analysis plate. The medium was aspirated and inserts washed with PBS.
To determine the rate of drug transport in apical (A) to basolateral (B) direction, 300 μL of the test compound solution in buffer (HBSS, 5.6 mM glucose, 10 mM HEPES, pH=7.4) was added into the filter wells and 1000 μL of the same buffer was added to wells in the transport analysis plate. The plates were incubated for 90 min. at 37° C. with shaking at 50 rpm. 75 μL aliquots were taken from the apical and basolateral compartment for LC-MS/MS analysis. All samples for LC-MS/MS analysis were extracted by acetonitrile (×2 volume) followed by protein sedimentation by centrifuging at 10000 rpm for 10 minutes. Supernatants were analyzed using the HPLC system coupled with a tandem mass spectrometer.
The apparent permeability (Papp) was calculated for the Caco-2 permeability assay using the following equation: Papp=(VA/((Area)×(Time))×([drug]acc/[drug]initial,d), where: […]

The subject of series [1] is CYP450 panel (1A2, 2C9, 2C19, 2D6, 3A4). The experiment in a line: P450-Glo CYP450 inhibition, whole panel. Type of series: in vitro ADME. Conditions: 10 μM. Here is the method: All test points were performed in quadruplicates. Control membranes (without CYPs) represented the Negative control (baseline). DMSO final concentration was 0.25%.

SMILES strings stand for the structures.

Parkin, sequence (O60260 whole entry): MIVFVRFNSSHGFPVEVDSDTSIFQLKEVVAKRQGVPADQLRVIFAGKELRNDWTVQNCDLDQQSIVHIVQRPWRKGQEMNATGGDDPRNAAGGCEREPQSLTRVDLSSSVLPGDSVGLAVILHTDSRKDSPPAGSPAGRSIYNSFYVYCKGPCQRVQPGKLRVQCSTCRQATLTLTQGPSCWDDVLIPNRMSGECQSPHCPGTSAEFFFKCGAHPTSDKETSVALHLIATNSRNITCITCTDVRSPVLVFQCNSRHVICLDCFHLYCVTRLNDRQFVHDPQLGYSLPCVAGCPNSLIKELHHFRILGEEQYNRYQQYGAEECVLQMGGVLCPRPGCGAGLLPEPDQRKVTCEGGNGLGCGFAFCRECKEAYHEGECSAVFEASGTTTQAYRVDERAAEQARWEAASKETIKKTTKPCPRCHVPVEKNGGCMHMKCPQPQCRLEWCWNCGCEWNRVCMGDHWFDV

For the compound `O=C(Cn1cnc2c1CCCC2)Nc1ccc(-c2ccccc2)cc1` [Compound 1], at Parkin, the “Parkin substrate levels (ubiquitination and degradation)” value (“Parkin substrate levels” for short) was “reduced substrate levels”; the “pS65-Ub signal (western blot)” value is recorded as “robust induction of pS65-Ub”. In addition, in the series with Caco-2 cells, the “Permeability (individual replicates 1, 2)” value (from here on “Permeability”) is given as 12.1 10^−6 cm/s.

In the case of `CC(C)c1nccn1CC(=O)Nc1ccc(-c2ccccc2)cc1` [Compound 2], on Parkin, the “Parkin substrate levels” value is on record as “reduced substrate levels”; the “pS65-Ub signal (western blot)” value is “robust induction of pS65-Ub”. Moreover, the “Permeability” value in the series with Caco-2 cells was 18.5 10^−6 cm/s.

With `CC(C)(C)Sc1ccc(NC(=O)Cn2ccnc2)cc1` [Compound 3], the “inhibition of all 5 tested CYP450” value in series [1] was “very high inhibition”. Moreover, on Parkin, the “Parkin substrate levels” value is listed as “reduced substrate levels”; the “pS65-Ub signal (western blot)” value is “robust induction of pS65-Ub”. Moreover, in the series with Caco-2 cells, the “Permeability” value is recorded as 41.7 10^−6 cm/s.

Consider `O=C(Cn1ccnc1-c1ccccn1)Nc1ccc(-c2ccccc2)cc1` [Compound 4], for which the “inhibition of all 5 tested CYP450” value in series [1] is given as “did not show a significant inhibition”. Moreover, on Parkin, the “Parkin substrate levels” value is “reduced substrate levels”; the “pS65-Ub signal (western blot)” value is listed as “robust induction of pS65-Ub”.

For `Cc1nc2c(c(N3CCCN(Cc4ccccc4)CC3)n1)CCCC2` [Compound 31], at Parkin, the “Parkin substrate levels” value is listed as “reduced substrate levels”; the “pS65-Ub signal (western blot)” value is “robust induction of pS65-Ub”. Besides, the “Permeability” value with Caco-2 cells is listed as 45.2 10^−6 cm/s.
